How the values were obtained:
Assay in all cases: SelectScreen kinase profiling, SSBK ZLyte SP Technology
Type in all cases: biochemical
[1] = target: kinase named in conditions (Homo sapiens, UniProt P12931); conditions: SRC, 10 μM
Method: (§1) Kinase selectivity screening was performed by Thermo Fisher Scientific (Paisley, U.K.) in their SelectScreen Biochemical Kinase Profiling Service. Assay information and data are presented in the Supporting Information.
(§2) Kinase selectivity screening was performed by ThermoFisher Scientific (Paisley, U.K.) in their SelectScreenTM
(§3) Biochemical Kinase Profiling service .

[2] = target: kinase named in conditions (Homo sapiens, UniProt Q13464); conditions: ROCK1, 10 μM
Method: as §1, §2, §3

[3] = target: kinase named in conditions (Homo sapiens, UniProt P24941); conditions: CDK2/cyclin A, 10 μM
Method: as §1, §2, §3

[4] = target: kinase named in conditions (Homo sapiens, UniProt P51957); conditions: NEK4, 10 μM
Method: as §1, §2, §3

[5] = target: kinase named in conditions (Homo sapiens, UniProt P30530); conditions: AXL, 10 μM
Method: as §1, §2, §3

[6] = target: kinase named in conditions (Homo sapiens, UniProt Q06187); conditions: BTK, 10 μM
Method: as §1, §2, §3

[7] = target: kinase named in conditions (Homo sapiens, UniProt Q96BR1); conditions: SGKL (SGK3), 10 μM
Sequence of kinase named in conditions (Homo sapiens, UniProt Q96BR1) (Q96BR1 whole entry): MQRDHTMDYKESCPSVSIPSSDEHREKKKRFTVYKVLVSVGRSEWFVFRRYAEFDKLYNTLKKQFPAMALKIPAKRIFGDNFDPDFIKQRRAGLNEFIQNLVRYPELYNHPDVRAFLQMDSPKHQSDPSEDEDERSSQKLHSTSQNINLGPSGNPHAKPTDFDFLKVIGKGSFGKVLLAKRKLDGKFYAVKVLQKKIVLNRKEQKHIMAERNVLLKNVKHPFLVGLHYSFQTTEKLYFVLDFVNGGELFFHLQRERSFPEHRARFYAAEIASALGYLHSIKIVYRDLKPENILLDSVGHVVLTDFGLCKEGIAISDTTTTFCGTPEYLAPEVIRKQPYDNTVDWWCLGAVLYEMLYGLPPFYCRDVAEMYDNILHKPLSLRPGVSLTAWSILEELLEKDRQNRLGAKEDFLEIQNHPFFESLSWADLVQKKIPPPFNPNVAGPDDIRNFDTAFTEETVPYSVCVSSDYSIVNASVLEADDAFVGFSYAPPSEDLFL
Method: as §1, §2, §3

[8] = target: kinase named in conditions (Homo sapiens, UniProt Q9P0L2); conditions: MARK1 (MARK), 10 μM
Method: as §1, §2, §3

[9] = target: kinase named in conditions (Homo sapiens, UniProt Q13043); conditions: STK4 (MST1), 10 μM
Sequence of kinase named in conditions (Homo sapiens, UniProt Q13043) (Q13043 whole entry): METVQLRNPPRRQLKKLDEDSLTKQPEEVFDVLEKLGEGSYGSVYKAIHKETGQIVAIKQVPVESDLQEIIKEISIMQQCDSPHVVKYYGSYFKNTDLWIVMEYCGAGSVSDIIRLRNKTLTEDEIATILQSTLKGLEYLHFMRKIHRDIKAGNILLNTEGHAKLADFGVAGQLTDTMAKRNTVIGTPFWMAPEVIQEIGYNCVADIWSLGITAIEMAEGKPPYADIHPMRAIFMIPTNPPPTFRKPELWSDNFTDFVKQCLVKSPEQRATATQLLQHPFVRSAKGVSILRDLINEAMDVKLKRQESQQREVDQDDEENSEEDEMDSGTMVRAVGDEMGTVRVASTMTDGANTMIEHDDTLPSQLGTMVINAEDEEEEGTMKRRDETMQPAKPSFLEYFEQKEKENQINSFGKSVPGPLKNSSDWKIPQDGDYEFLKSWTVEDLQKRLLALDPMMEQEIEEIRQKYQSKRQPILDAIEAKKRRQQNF
Method: as §1, §2, §3

[10] = target: kinase named in conditions (Homo sapiens, UniProt P09619); conditions: PDGFRB (PDGFR beta), 10 μM
Method: as §1, §2, §3

[11] = target: kinase named in conditions (Homo sapiens, UniProt Q9BZL6); conditions: PRKD2 (PKD2), 10 μM
Method: as §1, §2, §3

[12] = target: kinase named in conditions (Homo sapiens, UniProt P08631); conditions: HCK, 10 μM
Method: as §1, §2, §3

[13] = target: kinase named in conditions (Homo sapiens, UniProt P49760); conditions: CLK2, 10 μM
Method: as §1, §2, §3

[14] = target: kinase named in conditions (Homo sapiens, UniProt Q13627); conditions: DYRK1A, 10 μM
Method: as §1, §2, §3

[15] = target: kinase named in conditions (Homo sapiens, UniProt Q8N568); conditions: DCAMKL2 (DCK2), 10 μM
Method: as §1, §2, §3

[16] = target: kinase named in conditions (Homo sapiens, UniProt P05771); conditions: PRKCB1 (PKC beta I), 10 μM
Sequence of kinase named in conditions (Homo sapiens, UniProt P05771) (P05771 whole entry): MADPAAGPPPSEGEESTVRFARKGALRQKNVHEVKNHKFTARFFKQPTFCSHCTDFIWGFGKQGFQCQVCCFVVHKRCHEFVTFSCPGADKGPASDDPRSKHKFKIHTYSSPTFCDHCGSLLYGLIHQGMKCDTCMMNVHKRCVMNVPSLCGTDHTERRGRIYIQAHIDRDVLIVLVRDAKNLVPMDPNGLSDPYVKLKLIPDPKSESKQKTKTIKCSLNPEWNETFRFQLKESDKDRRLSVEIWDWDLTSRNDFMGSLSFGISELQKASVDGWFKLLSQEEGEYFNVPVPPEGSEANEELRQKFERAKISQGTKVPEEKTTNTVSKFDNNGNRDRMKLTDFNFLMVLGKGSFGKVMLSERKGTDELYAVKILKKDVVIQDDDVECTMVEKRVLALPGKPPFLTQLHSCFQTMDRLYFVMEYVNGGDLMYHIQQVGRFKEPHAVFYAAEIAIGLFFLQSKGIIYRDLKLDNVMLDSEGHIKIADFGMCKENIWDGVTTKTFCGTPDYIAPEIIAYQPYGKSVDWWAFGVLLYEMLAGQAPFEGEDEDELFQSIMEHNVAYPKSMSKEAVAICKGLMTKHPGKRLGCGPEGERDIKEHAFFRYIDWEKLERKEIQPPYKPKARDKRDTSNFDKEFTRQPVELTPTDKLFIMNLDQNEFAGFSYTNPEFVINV
Method: as §1, §2, §3

[17] = target: kinase named in conditions (Homo sapiens, UniProt P07949, Y791F); conditions: RET Y791F, 10 μM
Method: as §1, §2, §3

[18] = target: kinase named in conditions (Homo sapiens, UniProt Q96GD4); conditions: AURKB (Aurora B), 10 μM
Method: as §1, §2, §3

[19] = target: kinase named in conditions (Homo sapiens, UniProt Q16644); conditions: MAPKAPK3, 10 μM
Method: as §1, §2, §3

[20] = target: kinase named in conditions (Homo sapiens, UniProt P78527); conditions: DNA-PK, 10 μM
Method: as §1, §2, §3

[21] = target: kinase named in conditions (Homo sapiens, UniProt P00533, C797S/L858R/T790M); conditions: EGFR (ErbB1) T790M C797S L858R, 10 μM
Method: as §1, §2, §3

[22] = target: kinase named in conditions (Homo sapiens, UniProt P49761); conditions: CLK3, 10 μM
Method: as §1, §2, §3

[23] = target: kinase named in conditions (Homo sapiens, UniProt P07949); conditions: RET, 10 μM
Sequence of kinase named in conditions (Homo sapiens, UniProt P07949) (P07949 29-1114): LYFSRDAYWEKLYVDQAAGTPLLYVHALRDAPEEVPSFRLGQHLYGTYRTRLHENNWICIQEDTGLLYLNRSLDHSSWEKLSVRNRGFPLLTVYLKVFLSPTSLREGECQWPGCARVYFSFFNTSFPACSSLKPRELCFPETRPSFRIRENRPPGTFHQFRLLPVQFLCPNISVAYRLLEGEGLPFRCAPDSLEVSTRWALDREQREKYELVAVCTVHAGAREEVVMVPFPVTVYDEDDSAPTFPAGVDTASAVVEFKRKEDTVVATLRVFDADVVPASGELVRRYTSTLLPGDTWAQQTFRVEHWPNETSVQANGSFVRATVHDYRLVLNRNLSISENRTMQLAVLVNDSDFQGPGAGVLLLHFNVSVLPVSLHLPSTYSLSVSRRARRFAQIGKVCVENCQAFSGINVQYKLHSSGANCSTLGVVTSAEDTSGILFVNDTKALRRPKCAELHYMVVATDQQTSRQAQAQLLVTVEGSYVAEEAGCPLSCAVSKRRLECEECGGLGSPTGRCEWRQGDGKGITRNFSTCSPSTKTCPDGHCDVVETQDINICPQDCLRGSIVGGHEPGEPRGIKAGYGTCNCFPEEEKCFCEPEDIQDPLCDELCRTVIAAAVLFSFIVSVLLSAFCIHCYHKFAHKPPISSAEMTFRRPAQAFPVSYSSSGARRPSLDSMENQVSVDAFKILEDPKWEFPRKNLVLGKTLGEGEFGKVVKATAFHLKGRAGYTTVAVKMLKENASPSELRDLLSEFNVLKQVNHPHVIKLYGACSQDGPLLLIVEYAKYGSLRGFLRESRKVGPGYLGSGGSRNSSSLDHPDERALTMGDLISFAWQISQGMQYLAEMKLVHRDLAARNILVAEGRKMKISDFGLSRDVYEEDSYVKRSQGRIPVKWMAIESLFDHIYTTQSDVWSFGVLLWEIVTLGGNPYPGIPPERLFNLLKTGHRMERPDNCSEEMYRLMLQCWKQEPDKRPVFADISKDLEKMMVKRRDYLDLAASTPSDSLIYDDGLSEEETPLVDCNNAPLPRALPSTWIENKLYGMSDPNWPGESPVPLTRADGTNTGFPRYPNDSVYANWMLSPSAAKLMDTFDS
Method: as §1, §2, §3

[24] = target: kinase named in conditions (Homo sapiens, UniProt P29322); conditions: EPHA8, 10 μM
Method: as §1, §2, §3

[25] = target: kinase named in conditions (Homo sapiens, UniProt P22607); conditions: FGFR3, 10 μM
Method: as §1, §2, §3

[26] = target: kinase named in conditions (Homo sapiens, UniProt O75914); conditions: PAK3, 10 μM
Sequence of kinase named in conditions (Homo sapiens, UniProt O75914) (O75914 whole entry): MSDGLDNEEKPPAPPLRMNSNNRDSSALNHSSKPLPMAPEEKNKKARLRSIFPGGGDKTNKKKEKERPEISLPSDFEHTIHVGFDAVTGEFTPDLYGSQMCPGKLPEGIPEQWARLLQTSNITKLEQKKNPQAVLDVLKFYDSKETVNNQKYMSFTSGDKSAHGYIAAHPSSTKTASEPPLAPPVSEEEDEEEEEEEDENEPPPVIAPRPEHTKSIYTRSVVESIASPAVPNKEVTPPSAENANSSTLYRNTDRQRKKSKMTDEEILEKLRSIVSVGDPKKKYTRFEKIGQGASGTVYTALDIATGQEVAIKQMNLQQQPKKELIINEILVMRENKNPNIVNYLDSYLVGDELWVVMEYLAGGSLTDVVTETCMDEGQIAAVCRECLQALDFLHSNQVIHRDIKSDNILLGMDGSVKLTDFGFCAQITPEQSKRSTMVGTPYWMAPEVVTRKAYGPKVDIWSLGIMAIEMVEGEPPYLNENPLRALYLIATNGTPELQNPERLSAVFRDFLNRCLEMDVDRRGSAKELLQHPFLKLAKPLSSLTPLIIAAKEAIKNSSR
Method: as §1, §2, §3

[27] = target: kinase named in conditions (Homo sapiens, UniProt P42679); conditions: MATK (HYL), 10 μM
Method: as §1, §2, §3

[28] = target: kinase named in conditions (Homo sapiens, UniProt O00141); conditions: SGK (SGK1), 10 μM
Method: as §1, §2, §3

[29] = target: kinase named in conditions (Homo sapiens, UniProt P00519, E255K); conditions: ABL1 E255K, 10 μM
Method: as §1, §2, §3

[30] = target: kinase named in conditions (Homo sapiens, UniProt P14616); conditions: INSRR (IRR), 10 μM
Method: as §1, §2, §3

[31] = target: kinase named in conditions (Homo sapiens, UniProt Q86Z02); conditions: HIPK1 (Myak), 10 μM
Sequence of kinase named in conditions (Homo sapiens, UniProt Q86Z02) (Q86Z02 whole entry): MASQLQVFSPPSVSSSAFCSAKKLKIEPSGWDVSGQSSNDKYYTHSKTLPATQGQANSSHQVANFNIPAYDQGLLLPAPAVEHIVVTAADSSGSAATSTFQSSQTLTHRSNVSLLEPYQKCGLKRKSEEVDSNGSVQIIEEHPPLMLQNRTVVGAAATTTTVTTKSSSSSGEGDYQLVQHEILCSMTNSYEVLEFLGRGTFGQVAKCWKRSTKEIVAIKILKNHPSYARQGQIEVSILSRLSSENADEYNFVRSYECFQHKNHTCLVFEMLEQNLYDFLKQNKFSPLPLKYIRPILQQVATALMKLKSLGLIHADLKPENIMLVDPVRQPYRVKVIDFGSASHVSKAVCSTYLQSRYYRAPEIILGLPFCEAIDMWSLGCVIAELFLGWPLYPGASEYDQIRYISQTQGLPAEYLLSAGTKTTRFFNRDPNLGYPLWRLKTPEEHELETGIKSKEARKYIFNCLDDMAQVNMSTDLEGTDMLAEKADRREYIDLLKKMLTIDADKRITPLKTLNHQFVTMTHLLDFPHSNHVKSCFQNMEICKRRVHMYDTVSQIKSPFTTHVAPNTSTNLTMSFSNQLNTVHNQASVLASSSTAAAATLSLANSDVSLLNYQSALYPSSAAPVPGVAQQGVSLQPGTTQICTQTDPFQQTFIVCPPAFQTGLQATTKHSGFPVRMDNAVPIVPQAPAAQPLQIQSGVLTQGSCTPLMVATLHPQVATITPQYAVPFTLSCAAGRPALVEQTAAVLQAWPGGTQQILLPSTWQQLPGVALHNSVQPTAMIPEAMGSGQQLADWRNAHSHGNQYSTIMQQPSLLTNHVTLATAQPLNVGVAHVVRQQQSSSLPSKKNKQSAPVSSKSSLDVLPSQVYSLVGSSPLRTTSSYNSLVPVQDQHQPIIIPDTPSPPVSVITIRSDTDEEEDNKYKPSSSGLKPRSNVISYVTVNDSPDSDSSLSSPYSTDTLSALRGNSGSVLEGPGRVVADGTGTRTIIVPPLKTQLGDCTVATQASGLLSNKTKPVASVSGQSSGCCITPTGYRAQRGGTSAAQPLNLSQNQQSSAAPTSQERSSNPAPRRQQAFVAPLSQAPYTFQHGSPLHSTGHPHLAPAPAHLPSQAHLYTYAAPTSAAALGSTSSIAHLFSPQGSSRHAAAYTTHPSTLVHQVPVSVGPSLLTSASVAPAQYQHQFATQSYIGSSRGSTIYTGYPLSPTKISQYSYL
Method: as §1, §2, §3

[32] = target: kinase named in conditions (Homo sapiens, UniProt P49841); conditions: GSK3B (GSK3 beta), 10 μM
Method: as §1, §2, §3

[33] = target: kinase named in conditions (Homo sapiens, UniProt P00533, G719S); conditions: EGFR (ErbB1) G719S, 10 μM
Method: as §1, §2, §3

[34] = target: kinase named in conditions (Homo sapiens, UniProt P10721); conditions: KIT, 10 μM
Method: as §1, §2, §3

Sequence of kinase named in conditions (Homo sapiens, UniProt P12931) (P12931 whole entry): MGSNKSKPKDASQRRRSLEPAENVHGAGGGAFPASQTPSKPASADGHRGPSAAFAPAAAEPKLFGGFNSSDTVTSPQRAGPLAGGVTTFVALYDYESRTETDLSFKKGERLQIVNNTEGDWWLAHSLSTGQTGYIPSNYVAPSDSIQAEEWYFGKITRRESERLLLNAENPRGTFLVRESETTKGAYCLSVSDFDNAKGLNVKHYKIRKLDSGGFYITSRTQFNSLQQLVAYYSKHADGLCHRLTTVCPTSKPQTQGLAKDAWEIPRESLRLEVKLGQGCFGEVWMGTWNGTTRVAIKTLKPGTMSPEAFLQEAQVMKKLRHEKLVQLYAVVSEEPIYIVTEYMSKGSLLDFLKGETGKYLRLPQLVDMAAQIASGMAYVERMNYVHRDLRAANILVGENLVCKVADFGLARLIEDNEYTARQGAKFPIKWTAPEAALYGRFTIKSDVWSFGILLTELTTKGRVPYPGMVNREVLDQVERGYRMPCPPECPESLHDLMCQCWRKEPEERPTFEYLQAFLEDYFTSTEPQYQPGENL

FC(F)(F)c1c(Cl)ccc(-n2ccnn2)c1Cl [8l, 1-(2,4-Dichloro-3-(trifluoromethyl)phenyl)-1H-1,2,3-triazole] gave an inhibition at 10 µM [1] of 6%, an inhibition at 10 µM [2] of 8% and an inhibition at 10 µM [3] of 6%. The inhibition at 10 µM [4] was 3%, the inhibition at 10 µM [5] was 4% and the inhibition at 10 µM [6] was 21%. It also gave an inhibition at 10 µM [7] of 10%, an inhibition at 10 µM [8] of -1% and an inhibition at 10 µM [9] of 1%. It also gave an inhibition at 10 µM [10] of 20%, an inhibition at 10 µM [11] of 0% and an inhibition at 10 µM [12] of 10%. It also gave an inhibition at 10 µM [13] of 18%, an inhibition at 10 µM [14] of 0% and an inhibition at 10 µM [15] of 1%. The inhibition at 10 µM [16] was 0%, the inhibition at 10 µM [17] was 5% and the inhibition at 10 µM [18] was 7%. For the same compound, the inhibition at 10 µM [19] was 1%, the inhibition at 10 µM [20] was 0% and the inhibition at 10 µM [21] was -17%. The inhibition at 10 µM [22] was 2%, the inhibition at 10 µM [23] was 7% and the inhibition at 10 µM [24] was 2%. For the same compound, the inhibition at 10 µM [25] was 12%, the inhibition at 10 µM [26] was 8% and the inhibition at 10 µM [27] was -11%. The inhibition at 10 µM [28] was 5%, the inhibition at 10 µM [29] was 13% and the inhibition at 10 µM [30] was 11%. It also gave an inhibition at 10 µM [31] of 2%, an inhibition at 10 µM [32] of 7% and an inhibition at 10 µM [33] of -1%. For the same compound, the inhibition at 10 µM [34] was -7%.

Reference: publication PMC9150124, “Design of a Potent, Selective, and Brain-Penetrant Inhibitor of Wnt-Deactivating Enzyme Notum by Optimization of a Crystallographic Fragment Hit” (Journal of Medicinal Chemistry, 2022)
